Literature values, collected in patent US7026311B2, “Dibenzodiazepine derivatives, their preparation and use” (Abbott GmbH & Co., KG, priority 2002, dated 2006).

Details: S. Cuzzocrea et al., Br. J. Pharmacol. 1997

Which “effects in a model of circulatory shock” value does the source give for `NC(=O)c1cccc(N)c1` [Example 3-aminobenzamide, 3-aminobenzamide] here?
The value was “protective effects”.
